Measured values: patent US20060079453A1, “Hla binding peptides and their uses” (priority 2002, published 2006)
No end group written: not given here.

Experiments:
Experiment in all cases: biochemical
Assay type in all cases: binding
HLA-DR DRB1*1501 (DR15) = HLA-DR DRB1*1501 (DR15) (Homo sapiens, UniProt P01903+P01911); conditions: DRBI *1501
HLA-DR DRB1*0701 (DR7) = HLA-DR DRB1*0701 (DR7) (Homo sapiens, UniProt P01903+P01911, A100R/A102G/A103Q/D57E/D86V/E43K/F76Y/K127E/L162R/M171V/P40G/Q125H/Q99D/R33Q/R42Y/R54Q/S133A/S66F/T210M/V115G/Y107V/Y59L/Y89S); conditions: DRB1 *0701
HLA-DR DRB1*0301 (DR3) = HLA-DR DRB1*0301 (DR3) (Homo sapiens, UniProt P01903+P01911, A100K/A102G/A103R/A169T/F55Y/I96L/K41T/L162R/M171V/P40S/Q125H/Q178H/Q39Y/R42S/S66N/T106N/T262R/W38E/Y61H)
Chain of HLA-DR DRB1*0301 (DR3) (P01903 26-254 limits assumed, other chains not shown): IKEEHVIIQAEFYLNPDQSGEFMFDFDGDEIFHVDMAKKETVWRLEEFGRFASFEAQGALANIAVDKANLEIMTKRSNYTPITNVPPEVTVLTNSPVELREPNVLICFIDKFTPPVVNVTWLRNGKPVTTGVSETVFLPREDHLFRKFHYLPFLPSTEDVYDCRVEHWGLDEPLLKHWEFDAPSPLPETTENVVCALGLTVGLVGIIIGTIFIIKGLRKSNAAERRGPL

HLA-DR DRB3*0101 (DR52) = HLA-DR DRB3*0101 (DR52) (Homo sapiens, UniProt P01903+P79483)
HLA-DR DRB5*0101 (DR51) = HLA-DR DRB5*0101 (DR51) (Homo sapiens, UniProt P01903+Q30154); conditions: DRB5 *0101
HLA-DR DRB1*0101 (DR1) = HLA-DR DRB1*0101 (DR1) (Homo sapiens, UniProt P01903+P01911, A100R/D57E/F55L/F60I/F76Y/I96L/L162R/M171V/P40L/Q125E/R42F/V115G/Y59C); conditions: DRB1 *0101
HLA-DR DRB1*0901 (DR9) = HLA-DR DRB1*0901 (DR9) (Homo sapiens, UniProt P01903+P01911, A100R/A103E/D57H/D86V/F55Y/F60I/F76Y/I96F/K127E/L162R/M171V/P40D/Q125H/Q99R/R33Q/R42F/S133A/S66N/T210M/V115G/W38K/Y107V/Y59G/Y89S); conditions: DRB1 *0901
HLA-DR DRB1*1302 (DR13) = HLA-DR DRB1*1302 (DR13) (Homo sapiens, UniProt P01903+P01911, A100E/A169T/K41T/L162R/M171V/P40S/Q125H/Q178H/Q39Y/Q99D/R42S/S66N/T262R/V115G/W38E/Y61H); conditions: DRBI *1302
Chain of HLA-DR DRB1*1302 (DR13) (P01903 26-254 limits assumed, other chains not shown): as above

HLA-DR DRB1*0802 (DR8) = HLA-DR DRB1*0802 (DR8) (Homo sapiens, UniProt P01903+P01911, A100R/A103L/A169T/F76Y/H45Y/I96F/K41T/L162R/M171V/P40S/Q125H/Q178H/Q39Y/Q99D/R218S/R42G/S66Y/V115G/W38E)
HLA-DR DRB1*0401 (DR4) = HLA-DR DRB1*0401 (DR4) (Homo sapiens, UniProt P01903+P01911, A100K/A169T/F76Y/I96L/K127E/L162R/M171V/N62H/P40V/Q125Y/R42H/S133A/S149N/S66Y/V115G/V209L/W38E); conditions: DRB1 *0401
HLA-DR DRB1*1101 (DR11) = HLA-DR DRB1*1101 (DR11) (Homo sapiens, UniProt P01903+P01911, A100R/A169T/A87E/I96F/K41T/L162R/M171V/P40S/Q125H/Q178H/Q39Y/Q99D/R42S/S66Y/T262R/V115G/W38E); conditions: DRB1 *1101
Chain of HLA-DR DRB1*1101 (DR11) (P01903 26-254 limits assumed, other chains not shown): as above

HLA-DR DRB4*0101 (DR53) = HLA-DR DRB4*0101 (DR53) (Homo sapiens, UniProt P01903+P13762, G164S); conditions: DRB4 *0101

| Molecule | IC50 (HLA-DR DRB1*1501 (DR15)) [nM] | IC50 (HLA-DR DRB1*0701 (DR7)) [nM] | IC50 (HLA-DR DRB1*0301 (DR3)) [nM] | IC50 (HLA-DR DRB3*0101 (DR52)) [nM] | IC50 (HLA-DR DRB5*0101 (DR51)) [nM] | IC50 (HLA-DR DRB1*0101 (DR1)) [nM] | IC50 (HLA-DR DRB1*0901 (DR9)) [nM] | IC50 (HLA-DR DRB1*1302 (DR13)) [nM] | IC50 (HLA-DR DRB1*0802 (DR8)) [nM] | IC50 (HLA-DR DRB1*0401 (DR4)) [nM] | IC50 (HLA-DR DRB1*1101 (DR11)) [nM] | IC50 (HLA-DR DRB4*0101 (DR53)) [nM] |
| --- | --- | --- | --- | --- | --- | --- | --- | --- | --- | --- | --- | --- |
| CC[C@H](C)[C@H](NC(=O)[C@@H]1CCCN1)C(=O)N[C@@H](CC(C)C)C(=O)N[C@@H](CC(C)C)C(=O)N[C@@H](Cc1c[nH]c2ccccc12)C(=O)N[C@@H](CCC(N)=O)C(=O)N1CCC[C@H]1C(=O)N[C@H](C(=O)N1CCC[C@H]1C(=O)N[C@H](C(=O)N[C@@H](Cc1c[nH]cn1)C(=O)N[C@H](C(=O)N[C@H](C(=O)N1CCC[C@H]1C(=O)N[C@@H](CC(C)C)C(=O)O)C(C)C)[C@@H](C)O)C(C)C)[C@@H](C)CC | 6.9 | 46 | > 81800 | > 8830 | 41500 | 44 | 168 | 567 | 21200 | 258 | 4040 | – |
| SNLELLRISLLLIQS | 59 | 642 | 43500 | > 91900 | 50100 | 72 | 3420 | – | > 33300 | – | 23700 | – |
| TSITSLYQLENYTN | 99 | 6060 | 81300 | > 95200 | 6050 | – | 9950 | > 17100 | 26800 | – | 1100 | – |
| CC[C@H](C)[C@H](NC(=O)[C@@H](NC(=O)[C@H](Cc1c[nH]cn1)NC(=O)[C@@H](N)CC(C)C)C(C)C)C(=O)N[C@@H](CO)C(=O)N[C@@H](CC(N)=O)C(=O)N[C@@H](CC(=O)O)C(=O)N[C@H](C(=O)N[C@@H](CS)C(=O)N[C@@H](C)C(=O)N[C@@H](CCC(N)=O)C(=O)N[C@H](C(=O)N[C@@H](Cc1c[nH]cn1)C(=O)N1CCC[C@H]1C(=O)N[C@@H](CCC(N)=O)C(=O)O)C(C)C)C(C)C | 22800 | 17500 | 8320 | 1890 | > 200000 | 789 | 32700 | – | > 123000 | 790 | > 50000 | 1090 |
| CSCC[C@H](NC(=O)[C@H](CC(C)C)NC(=O)[C@@H]1CCCN1C(=O)[C@@H](NC(=O)[C@H](CS)NC(=O)[C@H](CC(=O)O)NC(=O)[C@@H](NC(=O)[C@H](CCCNC(=N)N)NC(=O)[C@H](CC(C)C)NC(=O)[C@@H](NC(=O)[C@H](Cc1ccc(O)cc1)NC(=O)[C@@H](N)CC(N)=O)[C@@H](C)O)C(C)C)[C@@H](C)O)C(=O)N[C@@H](Cc1ccc(O)cc1)C(=O)N[C@@H](CO)C(=O)N[C@@H](CC(C)C)C(=O)O | 5060 | 24600 | 45 | 25 | 66700 | 6800 | 48400 | 9 | 6320 | 9.9 | 7120 | – |
| GRLEYTLKDRRNFDI | 168 | 4960 | 30 | 9900 | 796 | 7250 | > 77300 | – | 4920 | – | 5000 | – |
| CC(C)C[C@H](NC(=O)CNC(=O)[C@H](Cc1ccccc1)NC(=O)[C@H](CCC(=O)O)NC(=O)[C@H](CCCCN)NC(=O)[C@@H](N)Cc1c[nH]c2ccccc12)C(=O)N[C@@H](CC(=O)O)C(=O)N[C@@H](CO)C(=O)N[C@H](C(=O)N[C@@H](CCC(=O)O)C(=O)N[C@@H](CC(C)C)C(=O)N[C@@H](C)C(=O)N[C@@H](Cc1c[nH]cn1)C(=O)N[C@@H](Cc1ccc(O)cc1)C(=O)N[C@@H](CC(=O)O)C(=O)O)C(C)C | 22800 | – | 85 | 829 | 89400 | 1140 | 7050 | 8410 | 20000 | 96 | 4930 | 5920 |
| CSCC[C@H](NC(=O)[C@H](CC(C)C)NC(=O)[C@H](CCC(N)=O)NC(=O)[C@H](CC(=O)O)NC(=O)[C@H](CC(N)=O)NC(=O)[C@H](CCSC)NC(=O)[C@H](CCSC)NC(=O)[C@H](CCCNC(=N)N)NC(=O)[C@H](CC(C)C)NC(=O)[C@@H](N)C(C)C)C(=O)N[C@@H](Cc1ccccc1)C(=O)N[C@@H](CC(C)C)C(=O)N[C@@H](CCC(=O)O)C(=O)N[C@@H](CCCNC(=N)N)C(=O)N[C@@H](C)C(=O)O | 127 | – | 183 | 98 | 85 | – | 10700 | 130 | 1700 | 29 | 2350 | 88 |
| TTLLRALGAQKEAIS | 89 | 4280 | 107000 | 33300 | 21 | 19 | 4610 | 1510 | 652 | 339 | 860 | – |
| LTELYFEKGEYFVEM | > 2370 | – | 592 | 124 | 6660 | – | 26900 | 3160 | 18800 | 8050 | > 18900 | 601 |
| CC[C@H](C)[C@H](NC(=O)[C@H](Cc1ccccc1)NC(=O)[C@H](Cc1c[nH]c2ccccc12)NC(=O)CNC(=O)[C@H](Cc1ccccc1)NC(=O)[C@H](CC(C)C)NC(=O)[C@H](Cc1ccccc1)NC(=O)CNC(=O)[C@@H](N)CC(C)C)C(=O)N[C@@H](CCCCN)C(=O)N[C@@H](CO)C(=O)N[C@@H](CO)C(=O)N[C@@H](CC(N)=O)C(=O)N[C@@H](CCC(=O)O)C(=O)N[C@@H](C)C(=O)O | – | 2260 | > 75000 | 681 | 461 | 10 | 1700 | 10100 | 1420 | 1340 | 7300 | 9280 |
| CSCC[C@H](NC(=O)CNC(=O)CNC(=O)[C@H](CCCNC(=N)N)NC(=O)[C@@H](NC(=O)[C@H](CCC(N)=O)NC(=O)[C@H](C)NC(=O)[C@@H](NC(=O)[C@@H](NC(=O)[C@H](CC(C)C)NC(=O)[C@H](Cc1c[nH]cn1)NC(=O)[C@H](Cc1ccc(O)cc1)NC(=O)[C@@H](N)CCCCN)[C@@H](C)O)C(C)C)C(C)C)C(=O)N[C@H](C(=O)N[C@@H](Cc1ccccc1)C(=O)O)C(C)C | 1220 | 228 | 33700 | > 21900 | 86 | 137 | 5860 | 193 | 1520 | 806 | 859 | – |
| CC[C@H](C)[C@H](NC(=O)[C@H](Cc1c[nH]c2ccccc12)NC(=O)[C@@H](NC(=O)[C@@H](NC(=O)[C@H](CO)NC(=O)[C@H](CC(C)C)NC(=O)[C@@H](N)[C@@H](C)O)C(C)C)[C@@H](C)O)C(=O)NCC(=O)N[C@@H](C)C(=O)N[C@@H](C)C(=O)N1CCC[C@H]1C(=O)N[C@@H](CC(C)C)C(=O)N[C@H](C(=O)N[C@@H](CC(C)C)C(=O)N[C@@H](CO)C(=O)O)[C@@H](C)CC | 97 | 16 | > 81800 | 6030 | 31 | 3.1 | 5.4 | 642 | 840 | – | 6860 | – |
| ITDSRVLERYLLEAK | 18 | 7500 | 6500 | > 42200 | – | 1570 | > 78900 | > 14700 | 967 | 1300 | 5280 | – |
